The target of the test is T1, JAK2 (JH1 domain-catalytic, Y1007F,Y1008F) kinase (Homo sapiens, UniProt O60674, Y1007F/Y1008F).
T1 construct: made in house; host or cells: transiently transfected HEK293 cells
T1 sequence (O60674 849-1124 Y1007F/Y1008F limits assumed): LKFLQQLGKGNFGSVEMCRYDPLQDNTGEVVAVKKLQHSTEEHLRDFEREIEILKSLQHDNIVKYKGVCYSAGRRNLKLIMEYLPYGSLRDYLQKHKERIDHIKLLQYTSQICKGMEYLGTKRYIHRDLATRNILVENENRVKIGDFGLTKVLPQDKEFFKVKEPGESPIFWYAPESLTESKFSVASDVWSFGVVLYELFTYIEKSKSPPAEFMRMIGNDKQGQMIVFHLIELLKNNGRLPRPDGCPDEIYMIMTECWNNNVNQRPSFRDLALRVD
The experiment in a line: JAK2 Binding Assay (JAK2 JH1 Domain Binding Assay). The note with it: JAK2 JH1 domain binding, qPCR detection; read-out: JAK2 Kd. For orientation: In qPCR the cycle at which signal appears reflects the starting amount.
The Kd is a measure of binding affinity in units of concentration. Regarding `Cn1cc(C(F)(F)F)cc(Nc2nc3ncc(Oc4ccnc(NC(=O)C[C@@H]5CCCCO5)c4)c(C#N)c3n2C)c1=O` (single isomer, unassigned) [Example I-74-a], the Kd is below 10 nM.

For the compound `CN1CCO[C@H](CC(=O)Nc2cc(Oc3cnc4nc(Nc5cc(C(F)(F)F)cn(C)c5=O)n(C)c4c3Cl)ccn2)C1` (single isomer, unassigned) [Example I-78-a], the equilibrium dissociation constant (Kd) is below 10 nM.

For `CN1CCO[C@@H](CC(=O)Nc2cc(Oc3cnc4nc(Nc5cc(C(F)(F)F)cn(C)c5=O)n(C)c4c3Cl)ccn2)C1` (single isomer, unassigned) [Example I-78-b], the dissociation constant (Kd) was below 10 nM.

On to `CN1CCO[C@H](CC(=O)Nc2cc(Oc3cnc4nc(Nc5cc(C(F)(F)F)cn(C)c5=O)n(C)c4c3C#N)ccn2)C1` (single isomer, unassigned) [Example I-90-a], for which the equilibrium dissociation constant (Kd) was below 10 nM.

Consider `CN1CCO[C@@H](CC(=O)Nc2cc(Oc3cnc4nc(Nc5cc(C(F)(F)F)cn(C)c5=O)n(C)c4c3C#N)ccn2)C1` (single isomer, unassigned) [Example I-90-b], for which the Kd is below 10 nM.

`CC(=O)Nc1cc(Oc2cnc3nc(Nc4cc([C@H]5CCOC5)nc(C(F)(F)F)c4)n(C)c3c2Cl)ccn1` (single isomer, unassigned) [Example I-91-a]: the Kd was below 10 nM.

As for `CC(=O)Nc1cc(Oc2cnc3nc(Nc4cc([C@@H]5CCOC5)nc(C(F)(F)F)c4)n(C)c3c2Cl)ccn1` (single isomer, unassigned) [Example I-91-b], the Kd is below 10 nM.

Turning to `CC(=O)Nc1cc(Oc2cnc3nc(Nc4cc([C@H]5CCOC5)nc(C(F)(F)F)c4)n(C)c3c2C#N)ccn1` (single isomer, unassigned) [Example I-95-i], the Kd is below 10 nM.

As for `CC(=O)Nc1cc(Oc2cnc3nc(Nc4cc([C@@H]5CCOC5)nc(C(F)(F)F)c4)n(C)c3c2C#N)ccn1` (single isomer, unassigned) [Example I-95-ii], the Kd is below 10 nM.

As to `CC(=O)Nc1cc(Oc2cnc3nc(Nc4cc([C@H]5CCCN5C)cc(C(F)(F)F)c4)n(C)c3c2Cl)ccn1` (single isomer, unassigned) [Example I-102-a], the dissociation constant (Kd) is below 10 nM.

Consider `CC(=O)Nc1cc(Oc2cnc3nc(Nc4cc([C@@H]5CCCN5C)cc(C(F)(F)F)c4)n(C)c3c2Cl)ccn1` (single isomer, unassigned) [Example I-102-b], for which the Kd was below 10 nM.

For `CC(=O)Nc1cc(Oc2cnc3nc(Nc4ccc([C@H]5CCCN5C)c(C(F)(F)F)c4)n(C)c3c2Cl)ccn1` (single isomer, unassigned) [Example I-108-a], the Kd was below 10 nM.

In the case of `CC(=O)Nc1cc(Oc2cnc3nc(Nc4ccc([C@@H]5CCCN5C)c(C(F)(F)F)c4)n(C)c3c2Cl)ccn1` (single isomer, unassigned) [Example I-108-b], the equilibrium dissociation constant (Kd) is below 10 nM.

As for `CC(=O)Nc1cc(Oc2cnc3nc(Nc4ccc([C@H]5CCCN5C)c(C(F)(F)F)c4)n(C)c3c2C#N)ccn1` (single isomer, unassigned) [Example I-109-a], the Kd was below 10 nM.

Regarding `CC(=O)Nc1cc(Oc2cnc3nc(Nc4ccc([C@@H]5CCCN5C)c(C(F)(F)F)c4)n(C)c3c2C#N)ccn1` (single isomer, unassigned) [Example I-109-b], the dissociation constant (Kd) was below 10 nM.

In the case of `CNC(=O)Nc1cc(Oc2cnc3nc(Nc4cc(C(F)(F)F)cn(C)c4=O)n(C)c3c2C#N)ccn1` [Example I-5, 1-(4-((7-cyano-1-methyl-2-((1-methyl-2-oxo-5-(trifluoromethyl)-1,2-dihydropyridin-3-yl)amino)-1H-imidazo[4,5-b]pyridin-6-yl)oxy)pyridin-2-yl)-3-methylurea], the Kd was below 10 nM.

Take `CN1CCN(C(=O)Nc2cc(Oc3cnc4nc(Nc5cc(C(F)(F)F)cn(C)c5=O)n(C)c4c3C#N)ccn2)CC1` [Example I-6, N-(4-((7-cyano-1-methyl-2-((1-methyl-2-oxo-5-(trifluoromethyl)-1,2-dihydropyridin-3-yl)amino)-1H-imidazo[4,5-b]pyridin-6-yl)oxy)pyridin-2-yl)-4-methylpiperazine-1-carboxamide]: the Kd was below 10 nM.

On to `Cn1cc(C(F)(F)F)cc(Nc2nc3ncc(Oc4ccnc(NC(=O)N5CC(O)C5)c4)c(C#N)c3n2C)c1=O` [Example I-8, N-(4-((7-cyano-1-methyl-2-((1-methyl-2-oxo-5-(trifluoromethyl)-1,2-dihydropyridin-3-yl)amino)-1H-imidazo[4,5-b]pyridin-6-yl)oxy)pyridin-2-yl)hydroxyazetidine-1-carboxamide], for which the Kd is below 10 nM.

For `COC1CN(C(=O)Nc2cc(Oc3cnc4nc(Nc5cc(C(F)(F)F)cn(C)c5=O)n(C)c4c3C#N)ccn2)C1` [Example I-9, N-(4-((7-cyano-1-methyl-2-((1-methyl-2-oxo-5-(trifluoromethyl)-1,2-dihydropyridin-3-yl)amino)-1H-imidazo[4,5-b]pyridin-6-yl)oxy)pyridin-2-yl)-3-methoxyazetidine-1-carboxamide], the equilibrium dissociation constant (Kd) is below 10 nM.

Turning to `COC(=O)Nc1cc(Oc2cnc3nc(Nc4cc(C(F)(F)F)n(C5CC6(COC6)C5)n4)n(C)c3c2Cl)ccn1` [Example I-10, Methyl(4-((2-((1-(2-oxaspiro[3.3]heptan-6-yl)-5-(trifluoromethyl)-1H-pyrazol-3-yl)amino)-7-chloro-1-methyl-1H-imidazo[4,5-b]pyridin-6-yl)oxy)pyridin-2-yl)carbamate], the dissociation constant (Kd) is below 10 nM.

Regarding `Cn1cc(C(F)(F)F)cc(Nc2nc3ncc(Oc4ccnc(NC(=O)N5CCCC5)c4)c(C#N)c3n2C)c1=O` [Example I-11, N-(4-((7-cyano-1-methyl-2-((1-methyl-2-oxo-5-(trifluoromethyl)-1,2-dihydropyridin-3-yl)amino)-1H-imidazo[4,5-b]pyridin-6-yl)oxy)pyridin-2-yl)pyrrolidine-1-carboxamide], the Kd was below 10 nM.

In the case of `COCCOC(=O)Nc1cc(Oc2cnc3nc(Nc4cc(C(F)(F)F)cn(C)c4=O)n(C)c3c2C#N)ccn1` [Example I-12, 2-methoxyethyl(4-((7-cyano-1-methyl-2-((1-methyl-2-oxo-5-(trifluoromethyl)-1,2-dihydropyridin-3-yl)amino)-1H-imidazo[4,5-b]pyridin-6-yl)oxy)pyridin-2-yl)carbamate], the Kd was below 10 nM.

Turning to `CO[C@@H]1CCN(C(=O)Nc2cc(Oc3cnc4nc(Nc5cc(C(F)(F)F)cn(C)c5=O)n(C)c4c3C#N)ccn2)C1` [Example I-13, (R)-N-(4-((7-cyano-1-methyl-2-((1-methyl-2-oxo-5-(trifluoromethyl)-1,2-dihydropyridin-3-yl)amino)-1H-imidazo[4,5-b]pyridin-6-yl)oxy)pyridin-2-yl)methoxypyrrolidine-1-carboxamide], the Kd is below 10 nM.

Turning to `Cn1cc(C(F)(F)F)cc(Nc2nc3ncc(Oc4ccnc(NC(=O)OC5COC5)c4)c(C#N)c3n2C)c1=O` [Example I-16, Oxetan-3-yl(4-((7-cyano-1-methyl-2-((1-methyl-2-oxo-5-(trifluoromethyl)-1,2-dihydropyridin-3-yl)amino)-1H-imidazo[4,5-b]pyridin-6-yl)oxy)pyridin-2-yl)carbamate], the Kd is below 10 nM.
